Laboratory results taken from patent publication US20240287172A1, “PROTEIN BINDERS TO IRHOM2 EPITOPES” (SCIRHOM GMBH, priority 2019, published 2024).

Test system: PMA-induced release of endogenous HB-EGF from human U-937 cells
Assay: ELISA-based HB-EGF release assay, PMA-induced, U-937 cells
Assay type: cell-based
Conditions: PMA 25 ng/ml, 6 hours, murine (m) and chimeric (ch) antibodies and IgG at 3 μg/ml, Batimastat at 10 μM
Experimental: In brief, on day 1, Nunc black MaxiSorp® 96-well plates (Thermo Fisher Scientific, USA) were coated for 7 hours with 100 μl per well of rat anti-human HB-EGF capture antibody (provided as part of the DuoSet ELISA kit) at 2 μg/ml TBS at room temperature. Capture antibody solution was removed and MaxiSorp® plates were blocked with 300 μl per well of TBS, 1% BSA at room temperature for 3 hours. […]
Following another round of 4 times washing with 350 μl TBS-T (Carl Roth, Germany) per well on a 96-head plate washer (Tecan Group, Switzerland) and careful removal of all buffer traces after the fourth cycle, 100 μl AttoPhos substrate solution (Promega, USA) per well was added for incubation in the dark at room temperature for 1 hour. Using an infinite M1000 (Tecan Group, Switzerland) microplate reader, the fluorescence of each well was collected at an excitation wavelength of 435 nm and an emission wavelength of 555 nm. […]

CNC(=O)[C@H](Cc1ccccc1)NC(=O)[C@H](CC(C)C)[C@H](CSc1cccs1)C(=O)NO [Batimastat]
inhibition at 10 µM: 100%
